The experiment has as its system B16F10 melanoma tumors. The experiment is described as follows: Subcutaneous melanoma tumor model, in vivo transfection with CAT reporter gene. More on the design: species or system BALB/C mice. The note with it: cytofectin/CAT plasmid complex injected into tumor, tumors collected after forty-eight hours; averages; FIG. 3. On the procedure:
A) General Subcutaneous Tumor Transfection Assay. Tumors are prepared by injecting a suspension of tumor cells subcutaneously on the side of a mouse strain compatible with the specific tumor type. The tumors are periodically measured. Once the tumors reach a size suitable for injection, the tumor volume is approximated based on the measured diameter assuming a spherical tumor. A complex of the cytofectin compound to be evaluated with a plasmid encoding a reporter gene (e.g., CAT) in a volume of saline equal to the volume of the tumor to be treated is then injected at a flow rate optimized for the particular tumor type. After an appropriate time, the tumors are collected, frozen and then ground up. The reporter gene product is subsequently extracted and the quantity expressed is determined using extraction and assay conditions appropriate for the particular gene product. A variety of tumor types may be evaluated using this general technique. […]
B) Subcutaneous Melanoma Tumor Model. […] When the tumors reached 4.5 mm to 7.0 mm in diameter, the volume of each individual tumor was calculated by measuring the diameter of the tumor and assuming a spherical tumor. For each individual tumor, a volume of the cytofectin/CAT plasmid complex in saline equivalent to the calculated volume of the tumor was injected into the tumor at a rate of 2 ml/min. […] CAT activity was quantitated as described below. […]
For orientation: A reporter such as luciferase makes a cellular process visible.

Take `CCCCCCCCCCCCCCOCC(C[N+](C)(C)CCCNC(=O)NCCCCNC(=O)NCCC[N+](C)(C)CC(COCCCCCCCCCCCCCC)OCCCCCCCCCCCCCC)OCCCCCCCCCCCCCC` (centres unmarked) [SBGU-DMRIE]: the “CAT activity (relative transgene expression vs pDNA transfection alone)” value is given as “greater activity than the naked DNA (pDNA) control”.

Regarding `CCCCCCCCCCCCCCOCC(C[N+](C)(C)CCCNC(=O)NCCCCCCNC(=O)NCCC[N+](C)(C)CC(COCCCCCCCCCCCCCC)OCCCCCCCCCCCCCC)OCCCCCCCCCCCCCC` (centres unmarked) [SHGU-DMRIE], the “CAT activity (relative transgene expression vs pDNA transfection alone)” value is reported as “greater activity than the naked DNA (pDNA) control”.

The record behind these values is patent US6696424B1, “Cytofectin dimers and methods of use thereof” (Vical Incorporated, priority 1999, dated 2004).
